Measurements: patent US20150328292A1, “CASPASE POLYPEPTIDES HAVING MODIFIED ACTIVITY AND USES THEREOF” (BELLICUM PHARMACEUTICALS, INC., priority 2014, published 2015)
Several values for one entry are separate records, joined by “and”; a condition that tells them apart may be missing. Equal values may be shown once.

Columns and labels:
[1] = system: gene-modified allodepleted cells; assay: Induction of apoptosis with AP20187 in gene-modified allodepleted cells (annexin V/7-AAD); type: cell-based, human
Description: Suicide gene functionality was assessed by adding a small molecule synthetic homodimerizer, AP20187 (Ariad Pharmaceuticals; Cambridge, Mass.), at 10 nM final concentration the day following CD19 immunomagnetic selection. Cells were stained with annexin V and 7-aminoactinomycin (7-AAD)(BD Pharmingen) at 24 hours and analyzed by flow cytometry. Cells negative for both annexin V and 7-AAD were considered viable, cells that were annexin V positive were apoptotic, and cells that were both annexin V and 7-AAD positive were necrotic. The percentage killing induced by dimerization was corrected for baseline viability as follows: Percentage killing=100%−(% Viability in AP20187-treated cells÷ % Viability in non-treated cells).
Cells were maintained in T cell medium containing 50 U/ml IL-2 until 22 days after transduction. A portion of cells was reactivated on 24-well plates coated with […] OKT3 and 1 μg/ml anti-CD28 (Clone CD28.2, BD Pharmingen, San Jose, Calif.) for 48 to 72 hours. CD19 expression and suicide gene function in both reactivated and non-reactivated cells were measured on day 24 or 25 post transduction.
In some experiments, cells also were cultured for 3 weeks post transduction and stimulated with 30G-irradiated allogeneic PBMC at a responder:stimulator ratio of 1:1. After 4 days of co-culture, a portion of cells was treated with 10 nM AP20187. Killing was measured by annexin V/7-AAD staining at 24 hours, and the effect of dimerizer on bystander virus-specific T cells was assessed by pentamer analysis on AP20187-treated and untreated cells.

[2] = system: iCasp9-ΔCD19-transduced MSCs; assay: In vivo killing of iCasp9-transduced MSCs in SCID mice (luminescence, qPCR); set-up: species or system mouse
[3] = system: iCasp9M-transduced EBV-CTLs; assay: Loss of GFP-expressing iCasp9M-transduced EBV-CTLs after CID (flow cytometry); type: cell-based, human
[4] = system: iCasp9M.IRES.GFPhigh-transduced CTLs; assay: SCID mouse-human xenograft model, elimination of transduced CTLs by CID; type: in vivo; settings: single dose of CID (50 μg AP20187 i.p.), vs carrier
Description: Non-obese diabetic severe combined immunodeficient (NOD/SCID) mice, 6 to 8 weeks of age, were irradiated (250 rad) and injected subcutaneously in the right flank with 10×10^6 to 15×10^6 LCLs resuspended in Matrigel (BD Bioscience). Two weeks later mice bearing tumors that were approximately 0.5 cm in diameter were injected into the tail vein with a 1:1 mixture of nontransduced and iCasp9.I.GFPhigh-transduced EBV CTLs (total 15×10^6). At 4 to 6 hours prior and 3 days after CTL infusion, mice were injected intraperitoneally with recombinant hIL-2 (2000 U; Proleukin; Chiron). On day 4, the mice were randomly segregated in 2 groups: 1 group received CID (50 μg AP20187, intraperitoneally) and 1 group received carrier only (16.7% propanediol, 22.5% PEG400, and 1.25% Tween 80, intraperitoneally). […] By FACS analysis, the number of GFP+ cells within the gated CD3^+ population was evaluated. […]
The function of iCasp9M in vivo is graphically illustrated in FIG. 7. […] On day 3 after CTL administration, mice received either CID (50 μg AP20187; (black diamonds, n=6) or carrier only (black squares, n=5) and on day 6 the presence of human CD3+/GFP+ T cells in the tumors was analyzed. Human CD3+ T cells isolated from the tumors of a control group of mice that received only nontransduced CTLs (15×10^6 CTLs; n=4) were used as a negative control for the analysis of CD3+/GFP+ T cells within the tumors.

iCasp9-transduced MSCs = assay: Apoptosis of undifferentiated iCasp9-transduced MSCs after CID (annexin V/7-AAD FACS); type: cell-based, human
Description: Undifferentiated MSCs. The chemical inducer of dimerization (CID) (AP20187; ARIAD Pharmaceuticals, Cambridge, Mass.) was added at 50 nM to iCasp9-transduced MSCs cultures in complete medium. Apoptosis was evaluated 24 hours later by FACS analysis, after cell harvest and staining with annexin V-PE and 7-AAD in annexin V binding buffer (BD Biosciences, San Diego, Calif.). Control iCasp9-transduced MSCs were maintained in culture without exposure to CID.

[5] = system: F-Casp9M.I.GFPhigh-transduced T cells; assay: annexin-V/7-AAD staining of CID-treated transduced CTLs; type: cell-based, human; settings: GFPhigh-selected, overnight 10 nM CID
Description: CID (AP20187; ARIAD Pharmaceuticals) at indicated concentrations was added to transfected 293T cells or transduced CTLs. Adherent and nonadherent cells were harvested and washed with annexin binding buffer (BD Pharmingen, San Jose, Calif.). Cells were stained with annexin-V and 7-amino-actinomycin D (7-AAD) for 15 minutes according to the manufacturer's instructions (BD Pharmingen). Within 1 hour after staining, cells were analyzed by flow cytometry using CellQuest software (Becton Dickinson).

[6] = system: differentiated iCasp9-positive MSCs; assay: Apoptosis of differentiated iCasp9-transduced MSCs after CID (TUNEL, cell density); type: cell-based, human; settings: adipocytic differentiation, 50 nM CID, after 24 hours (from 584)
Description: Differentiated MSCs. Transduced MSCs were differentiated as presented above. At the end of the differentiation period, CID was added to the differentiation media at 50 nM. Cells were stained appropriately for the tissue being studied, as presented above, and a contrast stain (methylene azur or methylene blue) was used to evaluate the nuclear and cytoplasmic morphology. In parallel, tissues were processed for terminal deoxynucleotidyl-transferase dUTP nick end labeling (TUNEL) assay as per manufacturer instructions (In Situ Cell Death Detection Kit, Roche Diagnostics, Mannheim, Germany). For each time point, four random fields were photographed at a final magnification of 40× and the images were analyzed with ImageJ software version 1.43o (NIH, Bethesda, Md.). Cell density was calculated as the number of nuclei (DAPI positivity) per unit of surface area (in mm^2). The percentage of apoptotic cells was determined as the ratio of the number of nuclei with positive TUNEL signal (FITC positivity) to the total number of nuclei. Controls were maintained in culture without CID.

[7] = system: Primary T cells from healthy donors
[8] = 10 nM, 24 hours, day after CD19 selection

CC[C@H](C(=O)N1CCCC[C@H]1C(=O)O[C@H](CCc1ccc(OC)c(OC)c1)c1cccc(OCC(=O)NCC(CNC(=O)COc2cccc([C@@H](CCc3ccc(OC)c(OC)c3)OC(=O)[C@@H]3CCCCN3C(=O)[C@@H](CC)c3cc(OC)c(OC)c(OC)c3)c2)CN(C)C)c1)c1cc(OC)c(OC)c(OC)c1 [AP20187]
Killing efficiency after correction for baseline viability [1, 8]: about 92.9%±3.8%
viable cells after AP20187 [1, 8]: about 5.5%±2.5%
killing efficiency ([1]; OKT3/aCD28-reactivated cells, day 24 or 25): ~84.6%±8.0%
effect on virus-specific T cells (pentamer analysis) ([1]; allostimulated cells, 10 nM AP20187): spares (and thereby enriches) viral reactive subpopulations
killing efficiency ([1]; day 5 post transduction): 93.1±3.5%
residual viability ([1]; day 24 post transduction, 10 nM AP20187): 19.6±5.6%
killing efficiency ([1]; day 24 post transduction, non-reactivated): 63.1±6.2% and ~63.1%±6.2%
percentage killing ([1]; large scale (n=3)): about 95.4%
mean viability with AP20187 ([1]; large scale CD19 selection (n=3)): about 3.9%
viability of non-transduced cells with AP20187 ([1]; non-transduced cells (n=6)): about 86%±9%
Killing ([1]; reactivated, CD25 negative fraction): 78.6±9.1%
percentage killing ([1]; small scale (n=5)): about 91.4%
mean viability with AP20187 ([1]; small scale CD19 selection (n=5)): about 6.6%
apoptosis / elimination of iCasp9-modified T cells after dimerizer ([1]; summary statement, listed as small-molecule dimerizer): > 90%
proportion of surviving iCasp9-positive cells ([2]; mouse, in vivo): 0.7%
killing / depletion of iCasp9-positive MSCs in vivo ([2]; two injections of 50 μg of CID 24 hours apart): > 99%
CID concentration sufficient to obtain the maximal deletion effect ([3]; F-Casp9M.I.GFPhigh, day 7): 1 nM
reduction in mean fluorescence intensity of GFP in surviving CTLs ([3]; after CID): 70%
GFP+ cells eliminated ([3]; unselected CTLs, single 10-nM dose of CID, 5 donors): 91.3%
reduction in the number of human CD3+/GFP+ T cells in tumors ([4]; listed as CID): > 99%
reduction in the number of human CD3+/GFP+ T cells in tumors ([4]; listed as dimerizer): more than 99%
annexin positive non-transduced control MSC (Control/CID) (iCasp9-transduced MSCs; CID 50 nM, 24 hours): 15%
apoptosis index of iCasp9-negative cells (iCasp9-transduced MSCs; CID 50 nM, 24 hrs, listed as CID): 20±7% and 19%
apoptotic death of iCasp9-positive cells (iCasp9-transduced MSCs; CID 50 nM, within 24 hrs): 93±1%
apoptotic cells among magnetically immunoselected iCasp9-CD19-positive cells (iCasp9-transduced MSCs; after exposure to CID): More than 95%
apoptotic (annexin-V+/7-AAD−) phenotype [5]: 64%
necrotic (annexinV+/7-AAD+) phenotype ([5]; listed as CID): 30% and 32%
cell density [6]: < 14 cells/mm2

B1: N405Qco: codon-optimized version of the modified caspase-9 polypeptide having the N405Q substitution, SEQ ID NO: 39/40 (protein)
chain: VDGFGDVGALESLRGNADLAYILSMEPCGHCLIINNVNFCRESGLRTRTGSNIDCEKLRRRFSSLHFMVEVKGDLTAKKMVLALLELARQDHGALDCCVVVILSHGCQASHLQFPGAVYGTDGCPVSVEKIVNIFNGTSCPSLGGKPKLFFIQACGGEQKDHGFEVASTSPEDESPGSNPEPDATPFQEGLRTFDQLDAISSLPTPSDIFVSYSTFPGFVSWRDPKSGSWYVETLDDIFEQWAHSEDLQSLLLRVANAVSVKGIYKQMPGCFQFLRKKLFFKTSASRA
AP1903-dependent cytotoxicity / sensitivity in transduced T cells [7]: very subtle effect on inducible caspase function
